Results as given in US20140370520A1, “METHODS AND COMPOUNDS FOR DETECTING CANCER” (University College Cardiff Constultants Limited, priority 2010, published 2014).
“And” between values parts separate entries of the source, which are not always exact repeats. Equal entries are not always repeated.

Columns and labels:
[1] = target: T1, hNQO1 (Homo sapiens, UniProt P15559); experiment: Activity of 4-MU and Lactone with hNQO1; type: biochemical; conditions: 0.1 mM, NADH 0.5 mM, hNQO1, phosphate buffer pH 7, 37° C. (FIG. 6)
T1 sequence (P15559 whole entry): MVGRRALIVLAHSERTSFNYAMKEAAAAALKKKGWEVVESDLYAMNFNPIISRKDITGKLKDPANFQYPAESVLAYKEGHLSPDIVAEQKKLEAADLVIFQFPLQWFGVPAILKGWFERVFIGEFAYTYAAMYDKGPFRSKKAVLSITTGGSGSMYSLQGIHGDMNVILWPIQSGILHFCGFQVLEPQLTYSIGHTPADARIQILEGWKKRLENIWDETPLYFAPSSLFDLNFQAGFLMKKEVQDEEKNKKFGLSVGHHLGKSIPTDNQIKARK
Method: This experiment was performed to ensure the products of activation were not further metabolised by hNQO1. HPLC was carried out on samples containing 4-MU and Lactone (0.1 mM), NADH (0.5 mM) and hNQO1 (0.2 μg) in phosphate buffer (10 mM, pH 7) using a 1-99% acetonitrile gradient and a 2 μl injection volume. Temperature was maintained at 37° C.

[2] = target: T1, hNQO1; experiment: Evaluation of MTL8-252 activity with human NQO1 (HPLC/UPLC, UV and fluorescence detection); type: biochemical
Method: Initial HPLC was carried out on samples containing MTL8-252 (0.1 mM), NADH (0.5 mM) and 0.5 μg/ml hNQO1 in phosphate buffer (10 mM, pH 7) using a 1-99% acetonitrile gradient and a 1 μl injection volume. Temperature was maintained at 37° C.
Reduction of the parent compound was rapid as most of it had disappeared by the second injection. […] The rate of reduction in MTL8-252 concentration was calculated at 5.9 μM/min and when the concentration of the enzyme was halved the rate reduced to 1.5 μM/min
By altering the settings of the FL Plus detector (Low PMT voltage, λex 410 nm, λem 550 nm) and calibrating for 4-MU measurements by establishing a calibration graph it can be seen that there was a linear response to 4-MU up to at least 200 μM. The maximum concentration used in incubation experiments is 100 μM, final.
Following calibration of the instrument, a repeat experiment of the activation of MTL8-252 by hNQO1 was carried out resulting in calculated rates of loss of MTL8-252 and formation of 4-MU (see FIG. 4). Rate loss of MTL8-252 was 8.41 uM/min and that corresponding to 4-MU formation determined by fluorescence was 13.51 uM/min.

[3] = Stability of MTL8-252 in NMP and sodium phosphate buffer; type: physicochemical
Method: Stability of 0.1M MTL8-252 in NMP was assessed over a 2-hour period at 37° C. The compound appeared stable as evidenced by the fact that the uv absorbance peak area remained substantially unchanged. […] A similar experiment was carried out with DMSO stock diluted in 10 mM sodium phosphate buffer.

[4] = Solubility of MTL8-252 in NMP and DMSO; type: physicochemical
Method: NMP Solubility: A solution of the product of Example 3D (MTL8-252) was prepared in NMP and further diluted to 0.1M in NMP. The purity of the compound was assessed via uplc using a 1-99% Acetonitrile gradient. Injection volumes of 0.5 μl, 1 μl, 2 μl, 3 μl and 5 μl were used. Purity was determined to be almost 100% based on uv data at 265 nm. The FL Plus settings were (high PMT voltage, λex 410 nm and λem 550 nm, off peak). Only a single peak with retention time of approx 4.3 min was detected. MTL8-252 was equally very soluble in DMSO.
A similar result was obtained for the diluted DMSO stock. Subsequent experiments utilised 0.1M diluted stock in 10 mM phosphate buffer, pH 7.0 and injected directly onto the uplc column

[5] = target: T2, Human NQO1 expressing cells (HDT7) (Homo sapiens, UniProt P15559); experiment: MTL8-252 incubation with cultured cells, luminescence spectrophotometric determination of 4-MU; type: cell-based
T2 construct: expressed in transfected cells; host or cells: HDT7 (engineered NQO1-producing cell line; F179 is the null control)
T2 sequence (P15559 whole entry): as above
Method: (§1) Human NQO1 expressing cells (HDT7) and null expressing cells (F179) were cultured in Eagle's MEM medium enriched with non-essential amino acids and 10% FBS. Cells were harvested in exponential growing phase and suspended in cold PBS @ 5×10^6 cells/ml. 100 ul of cell suspension (5×10^5 cells) were added to 3 ml PBS containing 10 uM MTL8-252 at 37° C. in a fluorimeter cuvette and the rate of increase in fluorescence intensity (attributed to 4-MU release), measured over 3 minutes. Control experiment contained substrate alone in PBS.
(§2) The Luminescence Spectrophotometer settings were as follows: λex=360 nm; λem=452 @ 37° C.

[6] = tested on: null expressing cells (F179); experiment: as above; type: cell-based; conditions: F179 2.5×10^5 cells/mL, luminescence spectrophotometer
Method: as §1, §2

[7] = target: T3, hDT7 NQO1-expressing cell line (Homo sapiens, UniProt P15559); experiment: MTL8-252 incubation with cultured cells, uplc separation followed by FL-Plus detection; type: cell-based
T3 construct: expressed in transfected cells; host or cells: HDT7 (engineered NQO1-producing cell line; F179 is the null control)
T3 sequence (P15559 whole entry): as above
Method: (§3) Cells in exponential growth phase were harvested and resuspended in cold PBS at 5×10^6 cells/ml. 100 ul of cell suspension (5×10^5 cells) were added to 1 ml PBS containing 10 uM MTL8-252 at 37° C. and incubated for the following time periods: 0, 5, 30 and 60 min. The reaction was stopped by spinning down cells at 13,000 rpm for 30 seconds and the cell free extract injected (2 ul) directly unto the uplc.

[8] = tested on: null expressing cell line F179; experiment: as above; type: cell-based; conditions: MTL8-252 10 μM in PBS, 5×10^5 cells/mL
Method: as §3

[9] = Control experiment: substrate alone without cells, 4-MU release; type: physicochemical
[10] = Stability of MTL8-252 in PBS and cell culture media with or without FBS; type: physicochemical
Excerpt: Possible source is from FBS added in media.

[11] = target: T4, hNQO2 in PC3 cells (Homo sapiens, UniProt P16083); experiment: Discrimination between NQO1 and NQO2 activity in PC3 cells with co-substrate EP-0152R; type: cell-based; conditions: 5×10^5 PC-3 cells, 10 uM MTL8-252, 100 uM EP-0152R, 37° C., 5 min (FIG. 14)
T4 construct: Prostate carcinoma cells (as exemplified by PC3 cells) express both NQO1 and NQO2 activity; endogenous in cells; host or cells: PC3 (PC-3) human prostate cancer cell line
T4 sequence (P16083 1-231): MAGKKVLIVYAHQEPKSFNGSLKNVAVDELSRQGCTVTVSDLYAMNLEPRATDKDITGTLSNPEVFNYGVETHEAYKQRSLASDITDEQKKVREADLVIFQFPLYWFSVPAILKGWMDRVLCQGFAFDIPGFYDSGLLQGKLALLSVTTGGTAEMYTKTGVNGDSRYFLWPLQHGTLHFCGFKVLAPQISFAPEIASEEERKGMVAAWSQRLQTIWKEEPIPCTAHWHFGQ
Method: Prostate carcinoma cells (as exemplified by PC3 cells) express both NQO1 and NQO2 activity. However, the latter is only activated by the presence of a co-substrate not naturally present in the cells (EP-0152R, 1-carbamoylmethyl-3-carbamoyl-1,4-dihydronicotinamide).
To 440 ul of PBS containing 5×10^5 PC-3 cells pre-incubated at 37° C. for 5 min was added 10 uM MTL8-252 fluorogenic substrate in DMSO (final, 10 ul) and volume adjusted to 500 ul with PBS. After incubating for a further 5 min the mixture was syringe filtered as above and 2 ul of supernatant analysed by uplc as described earlier. The reaction on the same number of cells was repeated with the inclusion of 100 uM EP-0152R (50 ul) as co-substrate during incubation. The reaction mixture was filtered and analysed as above. […] In the former instance, where NQO1 and NQO2 are expressed, the supplemented assay can be used to provide a stronger assay signal and in the latter instance, where only NQO2 is expressed, the supplemented assay can be used to detect hNQO2 expressing cancers only.

[12] = target: T1, hNQO1; experiment: Evaluation of MTL8-252 activity with human NQO1 (HPLC/UPLC, UV and fluorescence detection); type: biochemical; remark: listed apart in the source
[13] = repeat experiment after calibration (FIG. 4)
[14] = replots of UV data at 210 nm (FIG. 5)

SMILES: Cc1c(C)c2c(c(C)c1O)C(C)(C)CC(=O)O2 [Lactone, 6-Hydroxy-4,4,5,7,8-pentamethyl-1-benzopyran-2-one]
- substrate of / stability in the presence of hNQO1 [1]: not substrates of hNQO1
- substrate of / stability in the presence of hNQO1 ([1]; listed as lactone): stable in the presence of hNQO1

SMILES: Cc1cc(=O)oc2cc(O)ccc12 [Compound 4-MU, 4-methylumbelliferone, reference compound]
- substrate of / stability in the presence of hNQO1 [1]: not substrates of hNQO1
- substrate of / stability in the presence of hNQO1 ([1]; listed as 4 MU): stable in the presence of hNQO1

SMILES: CC1=C(C)C(=O)C(C(C)(C)CC(=O)Oc2ccc3c(C)cc(=O)oc3c2)=C(C)C1=O [MTL8-252, 4-Methyl-2-oxo-2H-chromen-7-yl-3-methyl-3-(2,4,5-trimethyl-3,6-dioxocyclohexa-1,4-dienyl)butanoate]
- rate of disappearance of Compound (FIG. 4) ([2]; MTL8-252 100 μM, hNQO1 0.2 μg/mL, NADH 500 μM, UPLC): 13.51 µM/min
- reduction in the area of the peak without enzyme ([2]; MTL8-252 alone or with NADH alone (FIG. 3)): No significant reduction
- rate of appearance of 4 MU (FIG. 5) ([2]; UV at 210 nm, hNQO1 and NADH): 11.5 µM/min
- rate of appearance of the lactone (FIG. 5) ([2]; UV at 210 nm, hNQO1 and NADH): 9.84 µM/min
- rate of disappearance of MTL8-252 (FIG. 5) ([2]; UV at 210 nm, hNQO1 and NADH): 8.41 µM/min
- rate of appearance of 4 MU (FIG. 4) ([2]; detected by fluorescence, MTL8-252 100 μM, hNQO1 0.2 μg/mL, NADH 500 μM): 8.41 µM/min
- Rate of formation of Lactone (n = 2) ([2]; initial rates, MTL8-252 0.1 mM, NADH 0.5 mM, hNQO1, pH 7, 37° C.): 9.84 µM/min and 7.61 µM/min
- Rate of decrease in MTL8-252 concentration (n = 4) ([2]; initial rates, MTL8-252 0.1 mM, NADH 0.5 mM, hNQO1, phosphate buffer 10 mM pH 7, 37° C.): 5.9 µM/min and 6.21 µM/min and 8.41 µM/min and 9.05 µM/min
- Rate of formation of 4-MU @ 210 nm (n = 2) ([2]; initial rates, UV 210 nm, MTL8-252 0.1 mM, NADH 0.5 mM, hNQO1, pH 7, 37° C.): 11.48 µM/min and 6.0 µM/min
- Rate of formation of 4-MU by FL (n = 2) ([2]; initial rates, fluorescence detection, MTL8-252 0.1 mM, NADH 0.5 mM, hNQO1, pH 7, 37° C.): 13.51 µM/min and 6.90 µM/min
- 4-MU formation determined by fluorescence [2, 13]: 13.51 µM/min
- Rate loss of MTL8-252 [2, 13]: 8.41 µM/min
- initial rate of formation of 4-MU [2, 14]: 11.48 µM/min
- initial rate of formation of lactone [2, 14]: 9.84 µM/min
- substrate for hNQO1 ([2]; with NADH, pH 7, 37° C.): excellent substrate for hNQO1
- release of 4-methylumbelliferone (4-MU) in NMP ([3]; 0.1M in NMP, 2-hour period at 37° C.): No detectable release
- Stability in NMP ([3]; 0.1M in NMP, 2-hour period at 37° C., uv absorbance peak area): stable
- stability in 10 mM sodium phosphate buffer, time stable ([3]; DMSO stock diluted in 10 mM sodium phosphate buffer (FIG. 2)): at least 1 hr
- stability in phosphate buffer, time stable ([3]; phosphate buffer (10 mM), 37° C., monitored 75 mins (FIG. 2)): at least 1 hour
- solubility in DMSO [4]: very soluble
- increase in 4-MU formation rate, HDT7 compared with null expressing cells (F179) ([5]; FIG. 7, luminescence spectrophotometer): at least 5 fold
- rate of formation of 4 MU in the hDT7 cells (FIG. 7) ([5]; hDT7 2.5×10^5 cells/mL, luminescence spectrophotometer): 0.83 nmol/min
- rate of formation of 4 MU in the F179 cells (FIG. 7) [6]: 0.18 nmol/min
- increase in activity of hNQO1 expressing cells over null expressing cells (initial rate) ([7]; FIG. 8, uplc FL-Plus): about 100 fold
- initial rate of release of 4 MU in hDT7 cells (FIG. 8) ([7]; MTL8-252 10 μM in PBS, 5×10^5 cells/mL, FL-Plus λex=360 nm λem=450 nm): 6.1 µM/min
- initial rate of release of 4 MU in F179 cells (FIG. 8) [8]: 0.068 µM/min
- rate of release of 4 MU from the control experiment (FIG. 8) ([9]; MTL8-252 10 μM in PBS alone): 0.002 µM/min
- rate of formation of 4 MU in the urine alone (FIG. 7) ([9]; compound in urine alone, no cells): 0.32 nmol/min
- stability in PBS (FIG. 9) ([10]; PBS): very stable
- stability in cell culture medium (FIG. 9) ([10]; PBS replaced with cell culture medium, possible source FBS): other components in the media can reduce MTL8-252
- stability in media without FBS (FIG. 9) ([10]; media without FBS): very stable
- increase in the formation of 4-MU by addition of hNQO2 selective co-substrate [11]: 1.2 fold
- rate of reduction in MTL8-252 concentration ([12]; 0.2 μg/ml hNQO1, NADH): 5.9 µM/min
- rate of reduction in MTL8-252 concentration ([12]; concentration of the enzyme halved (0.10 μg/mL hNQO1)): 1.5 µM/min
